Experimental data taken from US10882817B2, “Acetylsalicylic acid derivative crystal, its preparation method and use” (Zhejiang Yuejia Pharmaceuticals Co., Ltd, priority 2015, dated 2021).

Test: Stability test of 2-(diethylamino)ethyl 2-acetoxybenzoate hydrochloride crystal
Format: physicochemical
Conditions: for pH value / Other related substances / Related substances 2-(diethylamino)ethyl-salicylate hydrochloride / Related substances Acetylsalicylic acid / Related substances Salicylic acid / Content: stored at 25° C.±2° C.; for pH value: 1.0 g sample in 50 mL water, filtrate; for Other related substances / Related substances 2-(diethylamino)ethyl-salicylate hydrochloride / Related substances Acetylsalicylic acid / Related substances Salicylic acid: HPLC; for Content: HPLC external standard method
Description: The 2-(diethylamino)ethyl 2-acetoxybenzoate hydrochloride crystals obtained in Example 1 is taken and placed under the conditions of 25° C.±2° C., and sampling is carried out at month 0, month 3, month 6, month 9, and month 12, respectively, followed by the detection of the pH value, related substances and their contents. In the process, the pH value is obtained by taking about 1.0 g of a sample, adding 50 mL of water, shaking for 10 minutes, filtration, taking 10 mL of a subsequent filtrate and detection with a pH meter; and the related substances and the contents are both detected by high performance liquid chromatography (an external standard method).

Compound: CCN(CC)CCOC(=O)c1ccccc1OC(C)=O.Cl [2-(diethylamino)ethyl 2-acetoxybenzoate hydrochloride]
- stability (after having been stored at 25° C.±2° C. for 12 months): very good stability
- pH value (Month 0): 4.82
- Other related substances (Month 0): Not detected
- Related substances 2-(diethylamino)ethyl-salicylate hydrochloride (Month 0): 0.58%
- Related substances Acetylsalicylic acid (Month 0): 0.0059%
- Related substances Salicylic acid (Month 0): Not detected
- Content (Month 0): 99.58%
- pH value (Month 3): 4.83
- Other related substances (Month 3): Not detected
- Related substances 2-(diethylamino)ethyl-salicylate hydrochloride (Month 3): 0.65%
- Related substances Acetylsalicylic acid (Month 3): 0.0063%
- Related substances Salicylic acid (Month 3): 0.00254%
- Content (Month 3): 99.51%
- pH value (Month 6): 4.81
- Other related substances (Month 6): Not detected
- Related substances 2-(diethylamino)ethyl-salicylate hydrochloride (Month 6): 0.58%
- Related substances Acetylsalicylic acid (Month 6): 0.0070%
- Related substances Salicylic acid (Month 6): 0.00101%
- Content (Month 6): 99.59%
- pH value (Month 9): 4.79
- Other related substances (Month 9): Not detected
- Related substances 2-(diethylamino)ethyl-salicylate hydrochloride (Month 9): 0.60%
- Related substances Acetylsalicylic acid (Month 9): 0.0048%
- Related substances Salicylic acid (Month 9): 0.00083%
- Content (Month 9): 99.57%
- pH value (Month 12): 4.83
- Other related substances (Month 12): Not detected
- Related substances 2-(diethylamino)ethyl-salicylate hydrochloride (Month 12): 0.62%
- Related substances Acetylsalicylic acid (Month 12): 0.0053%
- Related substances Salicylic acid (Month 12): 0.00103%
- Content (Month 12): 99.58%
